# Assay results taken from patent US11730716B2, “Compounds for treating ophthalmic diseases and disorders” (priority 2014, dated 2023).
# Columns and labels:
# [1] = system: experimental autoimmune uveitis (EAU); experiment: Prevention of relapses in the experimental autoimmune uveitis (EAU) rat model, R14-induced, intravitreal injection; type: in vivo, Lewis rats
# Excerpt: Experimental autoimmune uveitis (EAU) in Lewis rats is a model for human endogenous uveitis. The disease is mediated by CD4+ T lymphocytes of the T helper 1 (Th1) and Th17 subtypes. In Lewis rats the disease was induced by immunizing animals with retinal antigens such as interphotoreceptor retiniod-binding protein (IRBP) and adjuvant. IRBP is also considered to be an autoantigen in humans. Peptide R14, a 23mer from IRBP, is the most pathogenic epitope for Lewis rats. Immunization with these peptides emulsified in Complete Freund's Adjuvant (CFA) leads to severe inflammation of the anterior chamber of the eyes and destruction of the retinal architecture. R14 causes a relapsing-remitting disease with an early onset (about day 7), the peak of EAU between day 10 to 14 and the remission around day 17/18. 20 rats were immunized with 15 μg IRBP-peptide R14 emulsified in complete Freund's adjuvant. After primary disease, PP-001 was injected intravitreally at day 18 (6 μl=3 μg PP-001) in both eyes of 10 animals. One eye in this group dropped out because of penetrating the eye during injection. 10 animals received 6 μl PBS intravitreally in both eyes as control group. Clinical grade of inflammation in the anterior chamber was determined daily.
# [2] = in vivo; design: species or system Dutch Belted rabbits; details: male, Dutch Belted, rabbit, topical or ocular; for half-life: t1/2
# Procedure: 36 male Dutch Belted rabbits were divided in […]: 16 animals each in group 1 and 2 received 0.0625 mg and 0.125 mg PP-001 per eye, 4 animals were administered with dose vehicle (sucrose solution) only. At designated time points animals were sacrificed and vitreous humor, retina, and choroid were collected from both eyes of each animal and weighed. Samples were analysed for PP-001 concentration using a specific HPLC/MS/MS analytical method and PK parameters were calculated with Phoenix WinNonlin software (v6.3) using a non-compartmental model with sparse sampling.
# Animals were anesthetized with an intramuscular injection of ketamine hydrochloride (30 mg/kg) and xylazine (5 mg/kg) for the injection procedure.
# The study director performed the IVT injection in both eyes (OU). Topical ocular anesthetics were used per ASI SOPs.
# The eyes and surrounding tissues were cleaned and disinfected with 2% betadine ophthalmic solution and then rinsed with basic salt solution (BSS). Using a 30 gauge needle with length no greater than ⅝ inch, injections were made 5 to 7 mm from the limbus (where the cornea meets the sclera). Once inserted, the PP-001 or vehicle control was injected at a volume of 25 μL per eye. The needle was then removed and the eye rinsed with BSS.
# Vitreous humor and choroid/sclera/retina were collected from both eyes of each animal at the designated time point and analyzed for PP-001 concentration using a specific HPLC/MS/MS analytical method.
# [3] = system: vascular endothelial growth factor (VEGF); experiment: Cellular protein expression of VEGF in antigen-stimulated rat lymph node/T cell cultures (Luminex multiplex cytokine assay); type: cell-based; details: 3 μM, 10 μM and 30 μM; supernatants after 24 h
# Procedure: Rats were immunized with 25 μg of the respective peptide as previously described.
# After 10 to 12 days popliteal, inguinal and para-aortal lymph nodes (LN) were collected, single cell suspensions were stimulated with the respective antigen peptides at a final concentration of 10 μg/ml RPMI1640, supplemented with Penicillin/Streptomycin, L-Glutamine, essential and non-essential amino acids (all 4 from PAA, Colebee, Germany), 12.5 μM […] and 1% normal rat serum. After 3 days the cells were expanded in culture medium supplemented with 10% spleen conditioned medium (from Concanavalin A-stimulated rat spleen cells) and 5% fetal calf serum (FCS) for 4 days.
# For restimulation 0.5-2×10^6 T cells/ml were incubated with irradiated (8 Gy) rat thymocytes (3-10 fold more than T cells) as antigen-presenting cells (APC) and 10 μg/ml of the specific antigen peptide in culture medium as described for the first stimulation. After two days of culturing cells were expanded with conditioned medium for 5 days as described above, followed by another cycle of restimulation and expansion. […]
# [4] = system: choroidal neovascularization; experiment: Inhibition of choroidal neovascularization in PDSAg-induced EAU rat model; type: in vivo, Lewis rats
# Excerpt: Choroidal neovascularization is a known feature of posterior uveitis and a major cause of retinal destruction and loss of vision. To monitor the effect of PP-001 on neovascularization, the EAU model in Lewis rats was used. In Lewis rats the disease was induced by immunizing animals with retinal antigen PDSAg, a 14mer derived from S—Ag. Immunization with that peptide emulsified in Complete Freund's Adjuvant (CFA) leads to severe inflammation of the anterior chamber of the eyes and destruction of the retinal architecture and choroidal neovascularization Induction with PDSAg causes a monophasic disease with first clinical signs of inflammation observed between day 8 and 12 after immunization and reaching the peak of disease between day 14 and 18. Inflammation in the anterior chamber subsides until day 21 to 22 post immunization. Long term effects such as choroidal neovascularization are seen at the later stages of the disease after the inflammation of the anterior chamber has subsided. 18 Lewis rats were immunized with PDSAg. Starting at the beginning of the disease (day 9 post immunization) 6 animals were treated with PP-001 and 6 animals were treated with vehicle control. […] Post day 25 experiment was stopped and 12 eyes for each treatment group were histological analyzed for the presence of choroidal neovascularizations.
# [5] = system: intraocular tissues; experiment: Local tolerability of intravitreal injections of PP-001 in rat eyes; type: in vivo; details: high dose PP-001 (150 μg/ml, 10 μl intravitreal); 8 days
# Procedure: For this purpose, three different doses of PP-001, dissolved in phosphate-buffered saline (PBS) and a vehicle control with PBS only were injected into the posterior chamber (=vitreous) of rat eyes. The eyes (anterior chamber) were examined daily with an ophthalmoscope and after 8 days the experiment was terminated, and the eyes processed for histology (cryosections).
# 8 Lewis rats (age 7-8 weeks) were anesthetized using 0.5 mg/kg medetomidine s.c. Additional topical anesthesia with 0.4% oxybuprocaine eye drops was applied. After intraocular injection sedation was antagonized with an s.c. injection of 2.5 mg/kg atipamezol.
# 10 μl of solution were injected into the vitreous of both eyes with a 30 G needle, controlled under an operation microscope. The perpendicular injection is penetrating the […] and should neither touch the lens or the retina. After injection an antibiotic ointment was applied to the eyes to avoid infections.
# PP-001 was dissolved in PBS and applied intravitreally in 3 different concentrations.
# Group 1, Rat 1-1 and 1-2: 10 μl PBS (vehicle control)
# [6] = system: dry eye syndrome; type: in vivo
# Procedure: The aim of the study was to evaluate the tolerability and therapeutic potential of PP-001 in a murine model of dry eye syndrome.
# Dry eye symptoms were induced in forty (40) pigmented C57BL/6N mice by exposing them to a controlled environment (relative humidity<25%, air-flow 15 L/min, temperature 20-22° C.) and systemic scopolamine administration (0.5 mg/72 h) for 10 days.
# Mice were randomized into 4 groups of 10 animals and treated with PP-001, Restasis®, placebo and the forth group remained untreated.
# Tear production and corneal defects were evaluated on days 3, 7 and 10 using phenol red thread and fluorescence staining in each of the four groups.
# Preparation of Eye Drop Solutions:
# Placebo eye drops: A solution containing 20 mg/ml polyvinylpyrrolidone, 10 mg/ml glycerol 85%, 2 mg/ml hydroxypropyl methylcellulose in sodium phosphate buffer adjusted to pH 7.
# PP-001 eye drops: A solution containing 1.6 mg/ml PP-001, 20 mg/ml polyvinylpyrrolidone, 10 mg/ml glycerol 85%, 2 mg/ml hydroxypropyl methylcellulose in sodium phosphate buffer adjusted to pH 7.
# Positive control: Restasis® (cyclosporine ophthalmic emulsion from Allergan)
# [7] = system: Ad5 McEwen; experiment: Experimental adenoviral ocular infection (Ad5/NZW rabbit ocular model), eye drops, plaque assay on A549 monolayers; type: in vivo
# Procedure: 25 New Zealand White rabbits were inoculated in both eyes following general anesthesia with ketamine and xylazine, topical anesthesia with proparacaine, and corneal scarification (12 cross-hatched strokes of a #25 needle) with 50 μl of 3.0×10^7 PFU/ml (1.5×10^6 PFU/eye) of Ad5 McEwen (Stock 1/17/08, 4.08×10^8 PFU/ml). Eyes were closed and gently rubbed for 5 seconds to ensure contact of the virus on all ocular surfaces.
# At least 3 h after inoculation, all eyes were cultured for virus. Following topical anesthesia with proparacaine, a single cotton-tipped swab was placed into the lower fornix of each eye, rolled over the cornea into the upper fornix to recover adenovirus from the tear film and corneal and conjunctival surfaces. The swabs from each eye were placed individually into tubes containing 1 ml of outgrowth media and were frozen at −70° C. pending plaque assay.
# On day 1, the rabbits were divided into 5 treatment groups outlined in the chart below. The five treatment groups consisted of a vehicle control, 0.16% PP-001 8 times, 6 times, and 4 times daily for 10 days, and the positive antiviral control 0.5% cidofovir (CDV).
# Begin of treatment on day 1. Drops were administered with at least a 45 min interval between drops. All eyes from all groups were cultured for virus on days 1, 3, 4, 5, 7, 9, 11, and 14 PI at least 1 h after the final doses of the treatments described above. At various times during the course of the experiment, Ad5 titers were determined on A549 cell monolayers using standard plaque assays. The ocular cultures to be titered were thawed, diluted (1:10) and inoculated onto A549 monolayers. The virus was adsorbed for 3 h. Following adsorption, 1 ml of media plus 0.5% methylcellulose was added to each well, and the plates were incubated at 37° C. in a 5% […] atmosphere. After 7 days incubation, the cells were stained with 0.5% gentian violet, and the number of plaques were counted under a dissecting microscope (25×). The viral titers were then calculated, and expressed as plaque-forming units per milliliter (PFU/ml). […]
# [8] = system: retinal and choroidal tissue; experiment: Tolerability of intravitreal injections of PP-001 solutions in Dutch Belted rabbits; type: in vivo; details: intravitreal 0.0625 or 0.125 mg/eye
compound,measurement,setting,value
"O=C(Nc1c(F)c(F)c(-c2cccc(OC(F)(F)F)c2)c(F)c1F)c1ccsc1C(=O)O [PP-001, 3-(2,3,5,6-tetrafluoro-3′-trifluoromethoxy-biphenyl-4-ylcarbamoyl)-thiophene-2-carboxylic acid]",time to the appearance of the first relapse,"[1]; single intravitreal injection at day 18, 3 μg per eye, compared to placebo group",delayed
same,reduction of the number of relapses,"[1]; single intravitreal injection at day 18, 6 μl = 3 μg per eye, vs PBS control",> 50%
same,Cmax,[2]; 0.0625 mg,33.2 µg/g
same,t1/2,[2]; 0.0625 mg,14.5 h
same,Cmax,"[2]; 0.0625 mg, Cmax",25.7 µg/g
same,half-life,[2]; 0.0625 mg,14.3 h
same,Cmax,[2]; 0.125 mg,56.9 µg/g
same,t1/2,[2]; 0.125 mg,13.1 h
same,Cmax,"[2]; 0.125 mg, Cmax",61.5 µg/g
same,half-life,[2]; 0.125 mg,21.4 h
same,protein expression of VEGF,[3],reduced
same,reduction of number of choroidal neovascularizations (factor),"[4]; treatment started at beginning of uveitis (day 9 post immunization), vs vehicle, p<0.005",3
same,mean number of choroidal neovascularizations,"[4]; treatment started at day 15 (peak of disease), vehicle mean 6, p<0.05",3
same,eyes completely normal,[5],2 of 4
same,corneal staining compared to placebo treatment,[6]; Day 10,reduced
same,corneal staining in comparison to the induced untreated group,"[6]; Day 10, multiple instillations",reduced significantly
same,corneal surface damage,[6]; multiple topical administrations of PP-001 1.6 mg/mL,reduced corneal surface damage comparable to Restasis®
same,dose response of antiviral efficacy,"[7]; 0.16% PP-001 8 times and 6 times per day vs 4 times per day, 10 days",more efficacious than 0.16% PP-001 instilled 4 times per day for 10 days
same,safety as topical antiviral agent,"[7]; 0.16% PP-001 eye drops, 4-8 times daily for 10 days",safe
same,antiviral efficacy (topical),"[7]; 0.16% PP-001 eye drops, Ad5 titers PFU/ml",efficacious
same,effect on the retinal and choroidal tissue,[8],did not have any significant effect
